Laboratory results from patent US20020037872A1, “N6 heterocyclic 5' modified adenosine derivatives” (CV Therapeutics, Inc., priority 1999, published 2002).
Entries after “also recorded” stand apart in the source; their conditions may differ.

Columns and labels:
[1] = test system: white adipocytes; settings: cited from earlier work
[2] = biological target: A1 receptor (Cavia porcellus, UniProt P47745); settings: chronic administration for 7 days; cited from earlier work
[3] = biological target: T1, A1 adenosine receptor (Cavia porcellus, UniProt P47745); assay: Guinea pig isolated perfused heart: S-H interval, heart rate, atrial MAP; settings: for effect on atrial monophasic action potential: FIG. 1 panel B; for effect on AV nodal conduction time (S-H interval) / second-degree AV block: FIG. 1 panel C; for effect on heart rate (chronotropic): spontaneously beating hearts, FIG. 1 panel A
T1 construct: The hearts were quickly removed and rinsed in ice-cold Krebs-Henseleit solution; from tissue; host or cells: guinea pig isolated perfused heart
T1 sequence (P47745 1-326): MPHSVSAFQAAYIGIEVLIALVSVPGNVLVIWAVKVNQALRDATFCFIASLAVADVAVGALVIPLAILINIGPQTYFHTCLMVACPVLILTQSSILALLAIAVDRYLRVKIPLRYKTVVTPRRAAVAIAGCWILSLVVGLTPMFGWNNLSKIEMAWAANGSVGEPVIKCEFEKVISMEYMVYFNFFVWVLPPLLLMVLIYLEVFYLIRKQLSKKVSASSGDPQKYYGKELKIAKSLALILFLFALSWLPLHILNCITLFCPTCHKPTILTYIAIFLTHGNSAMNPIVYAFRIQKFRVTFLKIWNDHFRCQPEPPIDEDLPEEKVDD
Protocol: Guinea pigs of either sex weighing 250-300 g were anesthetized with methoxyflurane and killed by cervical dislocation. The hearts were quickly removed and rinsed in ice-cold Krebs-Henseleit solution. The aorta was cannulated and the heart retrogradely perfused at a constant flow of 10 ml min^−1 with modified Krebs-Henseleit solution containing (mM): NaCL 117.9, KCl 4.8, CaCl2 2.5, MgSO4 1.18, KH2PO4 1.2, Na2EDTA 0.5, ascorbic acid 0.14, glucose 5.5, pyruvic acid (sodium salt) 2.0, and NaHCO3 25. The K—H solution was oxygenated with 95% oxygen and 5% CO2, pH 7.4, and temperature maintained at 36° C.
Hearts were electrically paced at a cycle length of 290-300 ms (unless otherwise indicated) using a bipolar electrode placed on the right atrium or ventricle. The stimulator, an interval generator (Model 1830, WPI, Sarasota, Fla., U.S.A.) delivered stimuli through a stimulus isolation unit (Model 1880, WPI) as square wave pulses of 3 ms in duration and at least twice the threshold intensity. The stimulus-to-His bundle (S—H) interval was used as index of AV nodal conduction time and was measured on-line during constant atrial pacing from microcomputer with a DT-208 1A interface board (Axon Instruments, Burlingame, Calif., U.S.A.) In experiments to study the chronotropic effect (effect on heart rate) of A1 AdoR agonists, the hearts were allowed to beat spontaneously. An atrial electrogram was used to record the electrical activity of the atria and to measure the heart rate.
Monophasic action potentials (MAP) were recorded using a pressure contact silver-silver chloride electrode (Langendorf Probe, EP Technologies, Inc., Sunnyvale, Calif., U.S.A.) placed on the surface of the left atrium. […] Signals were considered adequate if they were stable for at least 5 min and the amplitudes of the MAPs exceeded 10 mV. The data were digitized at 2 kHz by a DT-2801A digitizing board (Data Translation, Marlboro, Mass., U.S.A.) and stored using the Snapshot data acquisition program (Snapshot Storage Scope, HEM Data Corp., Southfield, Mich., U.S.A.) for later analysis. The duration of the atrial monophasic action potential was measured at 90% repolarization (MAPD90), using the Snapshot program. After completion of dissection and instrumentation, the hearts were allowed to equilibrate for 30 min before the experiments were begun. Whenever the baseline and post-intervention (washout) values differed by more than 15% the data were discarded. Approximately 60-70% of the experiments conformed with this criteria.

[4] = biological target: T2, A1 receptor (Oryctolagus cuniculus, UniProt P34970); settings: administered prior to ischemia; cited from earlier work
T2 construct: a rabbit ischemia model wherein 2-chloro-N6-cyclopentyladenosine (CCPA) and R-PIA were administered prior to ischemia; host or cells: rabbit in vivo
T2 sequence (P34970 1-328): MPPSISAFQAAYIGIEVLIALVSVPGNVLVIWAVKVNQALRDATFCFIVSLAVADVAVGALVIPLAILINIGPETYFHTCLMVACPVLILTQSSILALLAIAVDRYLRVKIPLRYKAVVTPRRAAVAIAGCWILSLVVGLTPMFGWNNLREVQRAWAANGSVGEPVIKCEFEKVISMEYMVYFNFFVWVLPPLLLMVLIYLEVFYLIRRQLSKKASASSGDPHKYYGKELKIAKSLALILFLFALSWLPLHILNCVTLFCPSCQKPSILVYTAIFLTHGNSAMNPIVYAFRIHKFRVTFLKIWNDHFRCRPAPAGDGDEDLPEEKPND

[5] = biological target: T3, A1 receptor (Mesocricetus auratus, UniProt A0A1U8BVR4); assay: Competitive binding assay, DDT1 cell membranes, [3H]CCPA; parameters: species or system hamster; settings: [3H]CCPA 2 nM, DDT1 cell membranes; read-out: Ki-DDT1 cell membrane
T3 construct: endogenous in cells; host or cells: DDT1 (DDT1 MF-2) hamster vas deferens smooth muscle cells
T3 sequence (A0A1U8BVR4 1-326): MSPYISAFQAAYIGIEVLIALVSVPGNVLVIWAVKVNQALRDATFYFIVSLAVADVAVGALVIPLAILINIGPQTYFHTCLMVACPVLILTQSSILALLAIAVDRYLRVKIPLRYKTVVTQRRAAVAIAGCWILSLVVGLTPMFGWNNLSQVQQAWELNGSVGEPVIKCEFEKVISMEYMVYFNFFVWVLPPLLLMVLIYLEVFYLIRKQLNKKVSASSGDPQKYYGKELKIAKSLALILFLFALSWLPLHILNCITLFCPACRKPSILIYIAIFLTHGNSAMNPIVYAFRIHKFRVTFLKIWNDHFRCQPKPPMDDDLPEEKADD

[6] = biological target: T4, A1 adenosine receptor (Mesocricetus auratus, UniProt A0A1U8BVR4); assay: [35S]GTPγS binding assay, A1-agonist stimulated; format: biochemical, hamster; settings: […], agonist stimulated [35S]GTPγS binding, CPA = 100%
T4 construct: endogenous in cells; host or cells: DDT1 (DDT1 MF-2) hamster vas deferens smooth muscle cells
T4 sequence (A0A1U8BVR4 1-326): T3 sequence (A0A1U8BVR4 1-326)
Protocol: Attached cells were washed twice with HBSS (2×10 ml), scraped free of the plate with the aid of a rubber policeman in 5 ml of 50 mM Tris-HCI buffer pH 7.4 at 4° C. and the suspension homogenized for 10 s. The suspension was then centrifuged at 27,000×g for 10 min. The pellet was resuspended in homogenization buffer by vortexing and centrifuged as described above. The final pellet was resuspended in 1 vol of 50 mM Tris-HCI buffer pH 7.4 containing 5 mM MgCl2 for A1 AdoR assays. For the [^35S]GTPγS binding assay the final pellet was resuspended in 50 mM Tris-HCI pH 7.4 containing 5 mM MgCl2, 100 mM NaCl and 1 mM dithiothreitol. This membrane suspension was then placed in liquid nitrogen for 10 min, thawed and used for assays. The protein content was determined by the method of Bradford (1976) using bovine serum albumin as standard.
A1-agonist stimulated [^35S]GTPγS binding was determined by a modification of the method described by Giersckik et al. (1991) and Lorenzen et al. (1993). […] Nonspecific binding was determined by the addition of 10 μM GTPγS. […] Previous reports have shown that agonist stimulated [^35S]GTPγS binding was dependent on the presence of GDP (Gierschik et al., 1991; Lorenzen et al., 1993; Traynor & Nahorski, 1995). […] In saturation experiments, 0.5 nM [^35S]GTPγS was incubated with 0.5-1000 nM GTPγS. At the end of the incubation, each suspension was filtered and the retained radioactivity determined as described above.

[7] = biological target: T4, A1 adenosine receptor; assay: cAMP assay (SPA) in DDT1 cells, forskolin-induced cAMP; format: cell-based, hamster; settings: for Emax: 10 min
Protocol: A scintillation proximity assay (SPA) using rabbit antibodies directed at cAMP using an added tracer of adenosine 3′,5′-cyclic phosphoric acid 2′-O-succinyl-3-[^125I]iodotyrosine methyl ester and fluoromicrospheres containing anti-rabbit specific antibodies as described by Amersham Pharmacia Biotech (Biotrak cellular communication assays). Briefly, DDT1 cells were cultured in clear bottomed 96 well microtiter plates with opaque wells at concentrations between 10^4 to 10^6 cells per well in 40 μl of HBSS at 37° C. (5% CO2 and 95% humidity). The partial or full A1 agonists (5 μl) of this invention were incubated at various concentrations with the DDT1 cells in the presence of rolipram (50 μM), and 5 μM forskolin for 10 min at 37° C. The cells were immediately lysed by treatment 5 μl of 10% dodecyltrirnethylammonium bromide followed by shaking using rnicroplate shaker. After incubation of the plate for 5 minutes, an imnuunoreagent solution (150 μl containing equal volumes of tracer, antiserum, and SPA fluorospheres) was added to each well followed by sealing the plate. After 15-20 h at 23° C., the amount of bound [^125] cAM to the fluoromicrospheres was determined by counting in a microtitre plate scintillation counter for 2 minutes. Comparison of counts with standard curves generated for cAMP using a similar protocol afforded the cAMP present after cell lysis.

[8] = seizures induced by DMCM; cited from earlier work
[9] = normalized to full agonist CPA, 5 μM forskolin, 50 μM rolipram

## C[C@H](Cc1ccccc1)Nc1ncnc2c1ncn2[C@@H]1O[C@H](CO)[C@@H](O)[C@H]1O [R-PIA, R-N6-phenylisopropyladenosine]
[1]
  leptin release: increase the leptin released from white adipocytes
[2]
  desensitization of A1 receptor (dromotropic response): led to a desensitization

## O=c1[nH]c(=O)c2[nH]c(C3CCCC3)nc2[nH]1 [CPX, 8-cyclopentylxanthine]
[3]; CPX 50 nM, cycle length 300 msec, FIG. 2
  antagonism of S-H interval prolongation caused by Compound 6: significant (P<0.05); also recorded: antagonizes the prolongation of S—H interval caused by compound 6

## OC[C@H]1O[C@@H](n2cnc3c(NC4CCCC4)nc(Cl)nc32)[C@H](O)[C@@H]1O [CCPA, 2-chloro-N6-cyclopentyladenosine]
[3]
  effect on atrial monophasic action potential: shortened the monophasic atrial action potential
  effect on AV nodal conduction time (S-H interval): prolonged the S—H interval
  second-degree AV block: caused second-degree AV block
  effect on heart rate (chronotropic): slowed heart rate
[4]
  protection with respect to infarct size: providing protection with respect to infarct size

## O=C(N[C@H]1CCC[C@@H]1O)OC[C@H]1O[C@@H](n2cnc3c(N[C@@H]4CCOC4)ncnc32)[C@H](O)[C@@H]1O [Compound 61, {(5-{6[((3R)oxolan-3-yl)amino]purin-9-yl}(3S,2R,4R,5R)-3,4dihydroxyoxolan-2-yl)methoxy]-N-((1S,2S)-2-hydroxycyclopentyl)carboxamide]
[5]
  Ki: 1570 nM
[6]
  Emax: 59%
[7]; [9]
  Emax: 53%

## COC(=O)C1CCCC1NC(=O)OCC1OC(n2cnc3c(N[C@@H]4CCOC4)ncnc32)C(O)C1O (stereo partly shown) [Compound 34]
[5]
  Ki: 3460 nM
[6]
  Emax: 17%
[7]; [9]
  Emax: -20%

## Cc1ccccc1CNc1ncnc2c1ncn2[C@@H]1O[C@H](CO)[C@@H](O)[C@H]1O [metrifudil]
[8]
  anticonvulsant activity: potent anticonvulsant

## OC[C@H]1O[C@@H](n2cnc3c(NC4CCCC4)ncnc32)[C@H](O)[C@@H]1O [CPA, N-6-cyclopentyladenosine]
[7]; DDT1 cells
  effect on forskolin induced cAMP generation: diminished the amount of forskolin induced cAMP generation back to basal levels
[7]; [9]
  cAMP: 100%
[3]; 30 nM CPA, four hearts
  second degree AV block: Second degree AV block occurred in all hearts
[3]
  effect on atrial monophasic action potential: shortened the monophasic atrial action potential
  effect on AV nodal conduction time (S-H interval): prolonged the S—H interval
  second-degree AV block: caused second-degree AV block
  effect on heart rate (chronotropic): slowed heart rate

## O=C(NC1CCC1)OCC1OC(n2cnc3c(N[C@@H]4CCOC4)ncnc32)C(O)C1O (stereo partly drawn) [Compound 39, [(5-{6[((3R)oxolan-3-yl)amino}purin-9-yl}(3S,2R,4R,5R)3,4-dihydroxyoxolan-2-yl)methoxy]-N-cyclobutylcarboxaniide]
[5]
  Ki: 447 nM
[6]
  Emax: 67%
[7]; [9]
  Emax: 45%
